Reference: US20260174692A1, “AEROSOL COMPOSITION” (UPyTher B.V., priority 2023, published 2026)
Values belong to the compound of their own block, whether it stands above or below them.

How the values were obtained:
[1] = In vitro release of ipilimumab from hydrogel; type: physicochemical; settings: 10 wt % UPy-PEG10k hydrogel; PBS pH 7.4
Description: The monoclonal antibody ipilimumab was loaded from a stock solution ([…] in PBS) to 3 μg/μl in the hydrogel. The drug loaded solution (50 μL) was transferred to 96-wells filter plate filled with PBS pH 7.4 (250 μL). At set time points the PBS was refreshed and the removed PBS was analyzed for antibody content with a Fortebio Octet interferometer.

[2] = In vitro release of TLR-agonists from hydrogel; type: physicochemical; settings: 6 and 10 wt. % hydrogel formulations; ammonium carbonate buffer
Description: The TLR-agonist resiquimod (synonym R848) was loaded from a stock solution (50 mM in DMSO) to 1.27 mM in the hydrogel. The TLR-agonist telratolimod (synonym MEDI9197) was loaded from a stock solution (10 mM in DMSO) to 0.5 mM in the hydrogel.
The drug loaded solution (100 μL) was transferred to a Millicell insert, which was placed in a 24-wells plate filled with PBS pH 7.4 (700 μL). At set time points the PBS was refreshed and the removed PBS was analyzed for R848 content UV absorbance at 320 nm. For MEDI9197, PBS was substituted for a volatile ammonium carbonate buffer and a HPLC-MS method was used. Release experiments were performed with n=3.

[3] = cited from earlier work

Compound: ipilimumab: monoclonal antibody, checkpoint inhibitor (CTLA-4), loaded to 3 μg/μl in the hydrogel
duration of antibody release [1]: released for multiple weeks

release rate from hydrogel [2]: released slower than MMC
Compound: CCCCCCCCCCCCCCCCCC(=O)NCCCCOn1c(CCCC)nc2c(N)nc3ccccc3c21 [MEDI9197, telratolimod]

Compound: O=C1[O][Pt]2([NH][C@@H]3CCCC[C@H]3[NH]2)[O]C1=O [oxaliplatin]
Cmax, ePIPAC ([3]; administered by ePIPAC): 2670 to 3280 ng/mL | AUCmax, systemic ([3]; after systemic chemotherapy): 51400 to 118000 ng·h/mL | Cmax, systemic ([3]; after systemic chemotherapy): 1610 to 1920 ng/mL
